In PubChem BioAssay (NCI):
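Five concentrations, 48 hours, 96-well plates. TGI marks complete inhibition of growth.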

Columns and labels:
Assay in all cases: NCI anticancer screen, dose series, 48 h
[1] = system: SNB-78 CNS
[2] = system: DLD-1 colon
[3] = system: NCI-H23 lung
[4] = system: DMS 273 small cell lung
[5] = system: M19-MEL melanoma
[6] = system: LXFL 529 NSCLC
[7] = system: XF 498 CNS
[8] = system: DMS 114 small cell lung
[9] = system: 786-0 renal
[10] = system: HT29 colon
[11] = system: SNB-75 CNS
[12] = system: HCT-15 colon
[13] = system: UO-31 renal
[14] = system: RXF-631 renal
[15] = system: SF-268 CNS
[16] = system: HL-60(TB) leukemia
[17] = system: SK-OV-3 ovarian
[18] = system: KM12 colon
[19] = system: CCRF-CEM leukemia
[20] = system: SNB-19 CNS
[21] = system: SK-MEL-2 melanoma
[22] = system: M14 melanoma
[23] = system: K-562 leukemia
[24] = system: A549 NSCLC
[25] = system: NCI-H226 lung
[26] = system: NCI-H522 lung
[27] = system: SK-MEL-5 melanoma
[28] = system: SW-620 colon
[29] = system: EKVX NSCLC
[30] = system: IGROV1 ovarian
[31] = system: CAKI-1 renal
[32] = system: KM20L2 colon
[33] = system: OVCAR-4 ovarian
[34] = system: MOLT-4 leukemia
[35] = system: OVCAR-5 ovarian
[36] = system: HCT-116 colon
[37] = system: SN12C renal
[38] = system: MALME-3M melanoma
[39] = system: RXF 393 renal
[40] = system: A498 renal
[41] = system: SF-295 CNS
[42] = system: UACC-257 melanoma
[43] = system: NCI-H460 lung
[44] = system: SK-MEL-28 melanoma
[45] = system: ACHN renal
[46] = system: LOX IMVI melanoma
[47] = system: OVCAR-8 ovarian
[48] = system: HOP-18 NSCLC
[49] = system: U251 CNS
[50] = system: UACC-62 melanoma
[51] = system: RPMI-8226 leukemia
[52] = system: COLO 205 colon
[53] = system: SR leukemia
[54] = system: HOP-92 NSCLC
[55] = system: OVCAR-3 ovarian
[56] = system: HOP-62 NSCLC
[57] = system: TK-10 renal
[58] = system: SF-539 CNS
[59] = system: HCC-2998 colon

Measured: TGI

C/C=C(\NC(=O)C(CCCCN)NC(=O)C(C)NC(=O)C1CSC(C)C(NC(=O)C2CSCC(NC(=O)C(C)NC(=O)C(N)C(C)CC)C(=O)NC(CCCCN)C(=O)NC(Cc3ccccc3)C(=O)NC(CC(C)C)C(=O)N2)C(=O)N2CCCC2C(=O)NCC(=O)N1)C(=O)NCC(=O)NC1CSCC2NC(=O)C(Cc3ccc(O)cc3)NC(=O)C(CSC=CNC2=O)NC(=O)C(CC(N)=O)NC(=O)C(Cc2ccccc2)NC1=O (configuration not stated)
> 100 µM: [1] | [2] | [3] | [4] | [5] | [6] | [7] | [8]

COC(=O)C(=O)C(C(=O)C(=O)Nc1ccccc1[N+](=O)[O-])c1nc2ccc([N+](=O)[O-])cc2[nH]c1=O (configuration not stated)
not listed: [2] | [7] | [55] | [56] | [57] | [58] | [59]
> 100 µM: all other assays above

C=CCC12CC(=O)CCC1c1ccc(OC)cc1C2=O (configuration not stated)
not listed: [7] | [14]
> 100 µM: all other assays above

CCC(C)(O)c1cn(-c2ccc(Cl)cc2)nn1 (configuration not stated)
not listed: [7] | [8] | [14]
> 100 µM: all other assays above

CC(=O)OCC1OC(n2c(=O)[nH]c(=O)c3n[nH]nc32)C(OC(C)=O)C(OC(C)=O)C1OC(C)=O (configuration not stated)
not listed: [1] | [11] | [14] | [18] | [25] | [55] | [58]
> 100 µM: all other assays above

CC(C)N(C(=O)C12C3C4C5(C(=O)O)C(C1C35I)C42C(=O)O)C(C)C (configuration not stated)
not listed: [7] | [21] | [31] | [39] | [46] | [48] | [51]
> 100 µM: all other assays above
